Test results taken from US20130012432A1, “Peptides for Treatment of Obesity” (Novo Nordisk A/S, priority 2010, published 2013).
Values after ≈ are worked out from the molar mass of the structure shown. Positions of bridges follow the written chain, without caps; N, C: chain ends. Non-standard residues stand in square brackets, D forms with d. Residues, ends and D or L forms follow the SMILES beside them. Groups on a side chain read outwards from the residue. *: point of attachment. Lys(CH2CO2H)2 = N[C@@H](CCCCN(CC(=O)O)CC(=O)O)C(=O)O; C17 diacid = O=C(O)CCCCCCCCCCCCCCCC(=O)*; AEEA = NCCOCCOCC(=O)O

Assays:
[1] = target: human MC4 receptor (Homo sapiens, UniProt P32245); assay: biochemical
Description: Assay (V)—Melanocortin Receptor 4 (MC4) Binding Assay
In Vitro ^125NDP-α-MSH Binding to Recombinant BHK Cells Expressing Human MC4 Receptor (Filtration Assay).
The assay was performed in 5 ml minisorb vials (Sarstedt No. 55.526) or in 96-well filter-plates (Millipore MADVN 6550), and using BHK cells expressing the human MC4 receptor using BHK cells stably expressing the human MC4 receptor. The membranes were prepared from frozen or fresh cells that were homogenized in 20 mM HEPES pH 7.1, 5 mM MgCl2 and 1 mg/ml bacitracin and centrifuged at 15000 rpm at 4° C., 10 min in a Sorvall RC 5B plus, SS-34 rotor. The supernatant was discarded, and the pellets were re-suspended in buffer, homogenized and centrifuged two more times. The final pellets were resuspended in the buffer mentioned above, and the protein concentration was measured and adjusted with buffer to 14 to 17 mg/ml and the membrane preparation were kept at −80° C. until assay. The assay was run directly on a dilution of this cell membrane suspension, without any further preparation. The BHK cell membranes are kept at −80° C. until assay, and the assay is run directly on a dilution of this cell membrane suspension, without further preparation. The suspension is diluted to give maximally 10% specific binding, i.e. to approx. 50-100 fold dilution. The assay was performed in a total volume of 200 μl: 50 μl of cell suspension, 50 μl of ^125NDP-α-MSH (≈79 pM in final concentration), 50 μl of test compound and 50 μl binding buffer (pH 7) mixed and incubated for 2 h at 25° C. [binding buffer: 25 mM HEPES, pH 7.0, 1 mM CaCl2, 1 mM MgSO4, 1 mM EGTA, 0.02% Bacitracin, 0.005% Tween™ 20 and 0.1% HSA or, alternatively, 0.1% ovalbumin (Sigma; catalogue No. A-5503)]. Test compounds were dissolved in DMSO and diluted in binding buffer. Radiolabelled ligand and membranes were diluted in binding buffer. The incubation was stopped by dilution with 2×100 μl ice-cold 0.9% NaCl. The radioactivity retained on the filters was counted using a Cobra II auto gamma counter.
The data were analysed by non-linear regression analysis of binding curves, using the Windows™ program GraphPad™ Prism (GraphPad Software, USA).

[2] = physchem
Description: From a stock solution in vehicle, either H2O or 10 mM phosphate, containing 1 mg (as weighed) compound per ml, 8-11 aliquots are withdrawn and pH-adjusted individually with HCl/NaOH, to cover the whole pH range.

[3] = target: MC1 receptor (Homo sapiens, UniProt Q01726); assay: biochemical
Procedure, shortened: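 Compounds competed against 125I-NDP-α-MSH (22 pM final) for binding to stably MC1-expressing BHK cell membranes, 30 °C for 90 min in HEPES pH 7.4 buffer with 0.1% HSA or ovalbumin. Bound ligand collected by filtration and counted; binding curves analysed by non-linear regression.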

[4] = target: T1, human GLP-1 receptor (Homo sapiens, UniProt P43220); assay: Assay (XI) GLP-1 activity assay, stimulation of cAMP formation; type: biochemical; conditions: membranes of BHK467-12A cells expressing human GLP-1 receptor
T1 construct: expressed in transfected cells; purified plasma membranes
From the text: The capture of cAMP is achieved by using a specific antibody conjugated to acceptor beads.

Sequence of MC1 receptor (Q01726 whole entry): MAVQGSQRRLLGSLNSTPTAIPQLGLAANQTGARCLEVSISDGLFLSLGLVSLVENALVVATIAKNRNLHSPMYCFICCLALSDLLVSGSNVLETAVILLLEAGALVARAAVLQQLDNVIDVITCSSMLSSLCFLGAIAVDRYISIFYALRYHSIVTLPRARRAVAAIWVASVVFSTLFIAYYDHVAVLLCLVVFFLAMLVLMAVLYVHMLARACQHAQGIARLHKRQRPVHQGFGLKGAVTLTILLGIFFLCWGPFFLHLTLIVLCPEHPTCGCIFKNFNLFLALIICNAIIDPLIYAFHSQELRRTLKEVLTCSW
Sequence of human MC4 receptor (P32245 whole entry): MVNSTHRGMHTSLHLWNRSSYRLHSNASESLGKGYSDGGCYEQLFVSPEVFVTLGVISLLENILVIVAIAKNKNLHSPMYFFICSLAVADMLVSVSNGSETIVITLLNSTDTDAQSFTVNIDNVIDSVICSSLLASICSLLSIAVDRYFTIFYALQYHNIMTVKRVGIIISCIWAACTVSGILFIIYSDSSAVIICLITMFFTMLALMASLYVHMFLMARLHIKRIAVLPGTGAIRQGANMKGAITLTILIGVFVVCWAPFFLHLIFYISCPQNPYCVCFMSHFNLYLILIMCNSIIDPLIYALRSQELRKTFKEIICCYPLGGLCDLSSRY
T1 sequence (P43220 24-463): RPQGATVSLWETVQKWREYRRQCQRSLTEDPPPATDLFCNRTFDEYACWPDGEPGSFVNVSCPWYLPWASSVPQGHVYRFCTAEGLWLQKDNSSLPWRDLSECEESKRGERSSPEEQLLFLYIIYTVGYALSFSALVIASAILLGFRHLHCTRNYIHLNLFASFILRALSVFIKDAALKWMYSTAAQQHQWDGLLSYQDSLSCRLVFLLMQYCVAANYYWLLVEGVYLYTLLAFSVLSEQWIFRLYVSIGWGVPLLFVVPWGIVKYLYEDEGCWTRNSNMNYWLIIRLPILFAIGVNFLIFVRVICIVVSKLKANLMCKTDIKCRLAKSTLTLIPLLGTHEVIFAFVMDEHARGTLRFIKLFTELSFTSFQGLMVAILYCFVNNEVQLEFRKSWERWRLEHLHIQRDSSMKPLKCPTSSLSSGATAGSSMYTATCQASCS

Molecule	Ki [1] [nM]	solubility ([2]; pH 6.5, Solubility Conc.) [µM]	solubility ([2]; pH 6.7, Solubility Conc.) [µM]	solubility ([2]; pH 6.8, Solubility Conc.) [µM]	solubility ([2]; pH 7, Solubility Conc.) [µM]	solubility ([2]; pH 7.3, Solubility Conc.) [µM]	solubility ([2]; pH 7.6, Solubility Conc.) [µM]	solubility ([2]; pH 7.8, Solubility Conc.) [µM]	solubility ([2]; pH 8, Solubility Conc.) [µM]	solubility ([2]; pH 8.2, Solubility Conc.) [µM]	Ki [3] [nM]	solubility ([2]; pH 6.6, Solubility Conc.) [µM]	solubility ([2]; pH 7.7, Solubility Conc.) [µM]	EC50 relative to that of compound G1 [4]
CC(=O)N[C@H]1CCCCNC(=O)C[C@@H](C(=O)N2CCC[C@H]2C(=O)N2CCC[C@H]2C(=O)N[C@@H](Cc2c[nH]cn2)C(=O)N[C@@H](CCC(=O)O)C(=O)N[C@@H](CCCCN(CC(=O)O)CC(=O)O)C(=O)N[C@@H](CCCCNC(=O)COCCOCCNC(=O)CCCCCCCCCCCCCCCC(=O)O)C(N)=O)NC(=O)[C@H](Cc2c[nH]c3ccccc23)NC(=O)[C@H](CCCNC(=N)N)NC(=O)[C@@H](Cc2ccccc2)NC(=O)[C@H](Cc2c[nH]cn2)NC1=O [Example 44, Ac-c[Lys-His-D-Phe-Arg-Trp-Asp]-Pro-Pro-His-Glu-Lys(biscarboxymethyl)-Lys({2-[2-(16-carboxyhexadecanoylamino)ethoxy]ethoxy}acetyl)-NH2] (Ac-KH[dF]RWDPPHE[Lys(CH2CO2H)2]K([AEEA-C17 diacid])-NH2; lactam 1-6)	17	227 (≈ 493 µg/mL)	364 (≈ 790 µg/mL)	407 (≈ 884 µg/mL)	430 (≈ 934 µg/mL)	412 (≈ 895 µg/mL)	407 (≈ 884 µg/mL)	429 (≈ 932 µg/mL)	408 (≈ 886 µg/mL)	430 (≈ 934 µg/mL)	> 10000			
CC(=O)N[C@H]1CCCCNC(=O)C[C@@H](C(=O)N2CCC[C@H]2C(=O)N[C@@H](CO)C(=O)N[C@@H](Cc2c[nH]cn2)C(=O)N[C@@H](CCC(=O)O)C(=O)N[C@@H](CCCCN(CC(=O)O)CC(=O)O)C(=O)N[C@@H](CCCCNC(=O)COCCOCCNC(=O)CCCCCCCCCCCCCCCC(=O)O)C(N)=O)NC(=O)[C@H](Cc2c[nH]c3ccccc23)NC(=O)[C@H](CCCNC(=N)N)NC(=O)[C@@H](Cc2ccccc2)NC(=O)[C@H](Cc2c[nH]cn2)NC1=O [Example 49, Ac-c[Lys-His-D-Phe-Arg-Trp-Asp]-Pro-Ser-His-Glu-Lys(biscarboxymethyl)-Lys({2-[2-(16-carboxyhexadecanoylamino)ethoxy]ethoxy}acetyl)-NH2] (Ac-KH[dF]RWDPSHE[Lys(CH2CO2H)2]K([AEEA-C17 diacid])-NH2; lactam 1-6)	25	248 (≈ 536 µg/mL)		427 (≈ 923 µg/mL)	462 (≈ 999 µg/mL)	460 (≈ 994 µg/mL)		456 (≈ 986 µg/mL)	410 (≈ 886 µg/mL)	446 (≈ 964 µg/mL)	> 10000	423 (≈ 914 µg/mL)	439 (≈ 949 µg/mL)	
exendin-4(7-45) [SEQ ID NO: 4]														about 0.3 times
